Like-named read-outs stand apart in the source and are kept apart here. No end group written: not given here.

Usually Kd stands for the free concentration of one partner at which half of the binding sites on the other are occupied at equilibrium, for simple one-to-one binding.

Assay [1] relates to isolated VSMC prepared from pulmonary arteries. Kind of assay: Binding of 99 mTc-VIP to isolated VSMC prepared from pulmonary arteries. Also noted: species or system human. Particulars: for Kd: read-out: binding affinity Kd. The text has this: FIG. 4: Binding of 99 mTc-VIP to isolated VSMC prepared from pulmonary arteries of PPH patients (4b) and control patients (4a).
(§1) While VIP-R mRNA accumulation is easily detectable PPH, only low levels of VIP-R mRNA accumulation can be detected in healthy controls (FIG. 3). Analogously an increased receptor binding activity for VIP is seen in primary cultures of pulmonary artery vascular smooth muscle cells (PaVSMC) prepared from pulmonary resistance vessels of PPH patients compared to healthy subjects (FIGS. 4a and 4b). […] Pharmacologically, nitric oxide induces vasodilatation by lowering the intracellular free calcium concentration of PaVSMC.

The nature of assay [2]: Acute testing of inhaled peptide in PPH patient, right heart catheterisation (pulmonary hemodynamics and gas exchange). Type of assay: in vivo, human. The following applies: for mean pulmonary artery pressure (mPAP) after inhalation: 100 μg inhaled for 15 minutes, measured 15 minutes after, baseline 63 (VIP) / 65 (PACAP) mmHg; for PVR after inhalation / SvO2 after inhalation / PaO2 after inhalation: 100 μg inhaled; for PVR after inhalation: baseline 12 (VIP) / 13 (PACAP) woods; for SvO2 after inhalation: baseline 61% (VIP) / 59% (PACAP); for PaO2 after inhalation: baseline 91%. How it is done:
A patient with severe PPH was under therapy with diltiazem, furosemid and an anticoagulant. Right heart catheterisation (Swan-Ganz, Baxter, Irvine, Calif., USA) was performed to measure mean pulmonary artery pressure (mpap), cardiac output (CO), mean arterial pressure (MAP), pulmonary capillary wedge pressure (PCWP) mixed venous oxygen saturation (SvO2%) and systemic arterial oxygen pressure (PaO2%). VIP (100 μg in 3 ml NaCl 0.9%) was inhaled for 15 minutes via the MicroDrop Master Jet (MPV, Truma, Germany) using a particle size of 3 μm to provide alveolar deposition of the substance. Alternatively VIP was injected i.v. 20 (ng/kg.b.w./min) via portable pump system (CADD-1, Pharmacia-Upjohn, Vienna, Austria). Pulmonary homodynamic and gas exchange were measured before and 15 minutes after inhalation or i.v. injection of VIP. Right heart catheterisation was performed in the intensive care unit. The patient was monitored on-line electrocardiographically, invasive blood pressure and systemic arterial oxygen saturation (SaO2%) (Hewlett Packard, Böblingen, Germany) were measured. All hemodynamic and oxygen measurements were performed with a cardiac output computer (Explorer, Baxter) and a pressure monitoring kit (Baxter, Irvine, Calif., USA). Calculations were made according to the standard equations in a […] by taking blood from the radial and pulmonary artery (Automatic blood gas system, AVL-995-Hb, Austria). At baseline (before inhalation of VIP), mPAP was 63 mmHg, CI 3.6 l·min^−1, PVR 12 woods, PCWP 9 mmHg, PaO2 91% and SvO2 61%. Addition of 100 μg inhaled VIP improved pulmonary hemodynamic parameters; mPAP decreased to 49 mmHg and PVR to 9 woods. PaO2 to 93% and SvO2 to 63% compared to baseline.
A patient with severe PPH was under therapy with diltiazem, furosemid and an anticoagulant. Right heart catheterisation (Swan-Ganz, Baxter, Irvine, Calif., USA) was performed to measure mean pulmonary artery pressure (mpap), cardiac output (CO), mean arterial pressure (mAP), pulmonary capillary wedge pressure (PCWP) mixed venous oxygen saturation (SvO2%) and systemic arterial oxygen pressure (PaO2%). PACAP (100 μg in 3 ml NaCl 0.9%) was inhaled for 15 minutes via the MicroDrop Master Jet (MPV, Truma, Germany) using a particle size of 3 μm to provide alveolar deposition of the substance. Pulmonary hemodynamics and gas exchange were measured before and 15 minutes after inhalation of PACAP. Right heart catheterisation was performed in the intensive care unit. The patient was monitored on-line electrocardiographically, invasive blood pressure and systemic arterial oxygen saturation (SaO2%) (Hewlett Packard, Böblingen, Germany) were measured. All hemodynamic and oxygen measurements were performed with a cardiac output computer (Explorer, Baxter) and a pressure monitoring kit (Baxter, Irvine, Calif., USA). Calculations were made according to the standard equations in a patient data management system (CareVue 9000, Hewlett Packard, Böblingen, Germany). Blood gas analysis was performed by taking blood from the radial and pulmonary artery (Automatic blood gas system, AVL-995-Hb, Austria). At baseline (before inhalation of PACAP), mPAP was 65 mmHg, CI 3.2 l·min^−1, PVR 13 woods, PCWP 10 mmHg, PaO2 91% and SvO2 59%. Addition of 100 μg inhaled PACAP improved pulmonary hemodynamic parameters; mpap decreased to 45 mmHg and PVR to 8 woods. PaO2 increased to 93% and SvO2 to 62% compared to baseline.

For assay [3], the system named is human pulmonary arterial rings. Kind of assay: Vasodilatory effect on human pulmonary arterial rings (vascular tone in vitro). The following applies: after increase of tone by 80 mmol K+, increasing concentrations (FIG. 6). Type of assay: cell-based. From the text:
FIG. 6: Vasodilatory effect of VIP on human pulmonary arterial rings. Arteries of patients subjected to thorax surgery were surgically removed and tested in vitro under standardized procedures for their vascular tone.

A short description of assay [4]: i.v. VIP in patient with severe essential arteriolar hypertension, intraarterial blood pressure monitoring. Particulars: 20 ng/kg/min i.v. The class given is in vivo, human. How it is done:
FIG. 7: The effect of VIP on systolic and diastolic blood pressure in a patient with essential hypertension after intravenous injection. The patient received VIP at 20 ng/kg/b.w./min. Blood pressure was measured intraarterially. Y-axis: pressure (mmHg), x-axis: time (min).
A patient with severe essential arteriolar hypertension is under treatment with nifedipine and enalapril. Systolic and diastolic systemic arterial pressure (SAP) were measured by intraarterial monitoring. VIP (20 ng/kg/min) was injected i.v. via a portable pump system (CADD-1, Pharmacia-Upjohn, Vienna, Austria). […] Before injection of VIP, the systolic pressure (SAP) was 165 mmHg and the diastolic (DAP) was 110 mmHg.

A short description of assay [5]: Inhaled VIP in COPD patient with secondary pulmonary hypertension (SPH). Type of assay: in vivo, human. The method, then: A patient suffering from Chronic Obstructive Pulmonary Disease (COPD) with secondary pulmonary hypertension (SPH) (mPAP 32 mmHg) was tested for their response to inhaled VIP (200 μg in 3 ml NaCl 0.9%) The inhalation of VIP led to a decrease of mPAP from 32 mmHg to 25 mmHg. This effect was paralleled by increase of cardiac output from 4.1 l·min^−1 to 4.8 l·min^−1.

The subject of assay [6] is VSMC from pulmonary arterial vessel. The experiment in a line: Proliferation of VSMC from pulmonary arterial vessel. The class given is cell-based, human. The following applies: 10^−12 M to 10^−9 M (FIG. 10).
Excerpt: FIG. 10: The effect of VIP on the proliferation of VSMC from pulmonary arterial vessel. Ordinate-proliferation as percent of control. 1-without VIP; 2-10^−12M VIP; 3-10^−11M VIP; 4-10^−10M VIP; 5-10^−9M VIP.
as §1

The nature of assay [7]: Acute testing of inhaled peptide in PPH patient, right heart catheterisation (pulmonary hemodynamics and gas exchange). The class given is in vivo, human. The following applies: for time dependence of mPAP decrease: 100 μg inhaled (FIG. 5b).
In assay [8] the test system is Nitric oxide synthetase (ecnos). Kind of assay: Nitric oxide synthetase (ecnos) expression in endothelial cells from pulmonary arteries, Western blot. The class given is cell-based, human. The following applies: 10^−7 M, normoxic and hypoxic conditions, 96 hours (FIG. 8). How it is done: FIG. 8: Nitric oxide synthetase (ecnos) expression in endothelial cells prepared from pulmonary arteries of control subjects after 96 hours of incubation. Cells were incubated with VIP (10^−7 M) under normoxic (−) and hypoxic (+) conditions for various times. Western blots reveal constitutive expression under normoxic conditions without VIP.
as §1
For orientation: A western blot detects proteins with antibodies after separation by electrophoresis.

The subject of assay [9] is VSMC prepared from pulmonary arteries. Kind of assay: Interleukin1-b induced elevation of intracellular free calcium in VSMC from pulmonary arteries, fura-2 method. The class given is cell-based, human. The following applies: VIP 250 ng/ml and 500 ng/ml (FIG. 9). How it is done: FIG. 9: The effect of VIP on the interleukin1-b induced elevation of intracellular free calcium concentration in VSMC prepared from pulmonary arteries. Ordinate-Ca2+ (nmol). 1-basal concentration; 2-interleukin1-b; 3-interleukin1-b plus VIP 250 ng/ml and 4-VIP 500 ng/ml intracellular calcium concentration during incubation with VIP; Ca 2+ was determined by fura-2 method.
as §1

Assay [10] concerns the target VIP receptor (VIP-R) on vascular smooth muscle cells prepared from human pulmonary arteries (human). Kind of assay: radioligand binding of 99mTc-VIP to isolated VSMC from pulmonary arteries of control patients (FIG. 4a).
Assay [11] shares this target. The experiment in a line: radioligand binding of 99mTc-VIP to isolated VSMC from pulmonary arteries of PPH patients (FIG. 4b).
Where [12] appears, read: VSMC of control patients (FIG. 4a).

Take 99 mTc-VIP: radiolabeled VIP: in assay [1] (VSMC of PPH patients (FIG. 4b)), the “specific binding Bmax” value was determined as 0.9 pm per mg protein and the Kd amounted to 1.6 pM. Besides, in [1] (setting [12]), the “specific binding Bmax” value was determined as 0.6 pm per mg protein and the Kd worked out at 42 pM.
As for “His-Ser-Asp-Ala-Val-Phe-Thr-Asp-Asn-Tyr-Thr-Arg-Leu-Arg-Lys-Gln-Met-Ala-Val-Lys-Lys-Tyr-Leu-Asn-Ser-Ile-Leu-Asn (HSDAVFTDNYTRLRKQMAVKKYLNSILN; listed as Homo sapiens) [VIP, 28 amino acid peptide hormone]”, in assay [2], the “mean pulmonary artery pressure (mPAP) after inhalation” value came to 49 mmHg, the PVR after inhalation came out at 9 woods, the SvO2 after inhalation was 63% and the PaO2 after inhalation was determined as 93%. Moreover, the vessel tone result in assay [3] was “continuous decrease of the vessel tone”. For the same molecule, the “diastolic pressure (DAP) after application” value in [4] (before 110 mmHg) worked out at 90 mmHg. In addition, the “systolic pressure (SAP) after application” value in assay [4] (before 165 mmHg) is 145 mmHg. This molecule yielded a mPAP after inhalation in assay [5] (200 μg in 3 ml NaCl 0.9% inhaled, from 32 mmHg) of 25 mmHg. Besides, in assay [5] (200 μg inhaled, from 4.1 l·min^−1), the “cardiac output after inhalation” value worked out at 4.8 L/min. Further, the “proliferation of PaVSMC” value in assay [6] is given as “inhibits the proliferation”. Further, the “time dependence of mPAP decrease” value in assay [7] (PPH patient) is “Time dependant decrease”. In addition, in assay [7] (PPH patient, increased inhaled doses (FIG. 5a)), the “dose dependence of mPAP decrease” value is on record as “dose-dependently decrease”. The molecule also displayed a dose of maximum efficacy on mPAP in assay [7] (PPH patient, inhaled) of 100 µg. Also, the ecnos expression result in [8] is recorded as “increased expression of ecnos above constitutional level”. Also, in assay [9], the “intracellular free calcium concentration” value is recorded as “decrease of the intracellular free calcium concentration”.
For “His-Ser-Asp-Gly-Ile-Phe-Thr-Asp-Ser-Tyr-Ser-Arg-Tyr-Arg-Lys-Gln-Met-Ala-Val-Lys-Lys-Tyr-Leu-Ala-Ala-Val-Leu-Gly-Lys-Arg-Tyr-Lys-Gln-Arg-Val-Lys-Asn-Lys (HSDGIFTDSRYSRYRKQMAVKKYLAAVLGKRYKQRVNK; listed as Homo sapiens) [PACAP, neuropeptide of 38 amino acid residues]”, in assay [2], the “mean pulmonary artery pressure (mPAP) after inhalation” value came to 45 mmHg, the PVR after inhalation came out at 8 woods, the SvO2 after inhalation is 62% and the PaO2 after inhalation is given as 93%. Further, in [7] (PPH patient), the “time dependence of mPAP decrease” value is reported as “time-dependently decrease”. The same molecule gave a CI in assay [7] (Table 1, after, mean, before mean 2.7) of 3.2. The PCWP in [7] (Table 1, after, mean, before mean 8.6) came out at 8.5. In assay [7] (Table 1, after, mean, before mean 57.1), this molecule displayed a mPAP of 44.4. Further, the SvO2 in [7] (Table 1, after, mean, before mean 60.0) turned out to be 62.5. The same molecule displayed a PaO2 in assay [7] (Table 1, after, mean, before mean 66.8) of 69.3. The mAP in assay [7] (Table 1, after, mean, before mean 84.5) is 81.0. In [7] (Table 1, after, mean, before mean 906.4), the PVR turned out to be 544.1.

B1: 99mTc-labelled vasoactive intestinal peptide (VIP) (peptide)
peptide: HSDAVFTDNYTRLRKQMAVKKYLNSILN
modifications: ends and bridges not checked; also: 99mTc radiolabel, site and chelator not given here
In turn, B1 had a Bmax (pm per mg protein) in [10] of 0.6. Besides, in [11], the Bmax (pm per mg protein) is 0.9 and the Kd amounted to 1.6 pM.

(Values after US8153599B1, “Compounds with the biological activity of vasoactive intestinal peptide for the treatment of pulmonary and arteriolar hypertension” (Mondobiotech AG, priority 2000, dated 2012).)
